Reference: patent US20250136614A1, “2,7-SUBSTITUTED PYRROLO[2,1-F][1,2,4]TRIAZINE COMPOUND HAVING PROTEIN KINASE INHIBITORY ACTIVITY” (Magicbullettherapeutics Co., Ltd., priority 2021, published 2025)
Positions count from the first letter of the chain named.

Key:
Experiment in all cases: Ba/F3 cell growth inhibition (CellTiter-Glo, 72 hours)
Format in all cases: cell-based
Ba/F3 FLT3 (ITD) = target: T1, Ba/F3 FLT3 (ITD) (Homo sapiens, UniProt P36888, cells depend on it, form not given); settings: read-out: Ba/F3 GI50s (μM) FLT3 (ITD)
T1 sequence (P36888 1-993): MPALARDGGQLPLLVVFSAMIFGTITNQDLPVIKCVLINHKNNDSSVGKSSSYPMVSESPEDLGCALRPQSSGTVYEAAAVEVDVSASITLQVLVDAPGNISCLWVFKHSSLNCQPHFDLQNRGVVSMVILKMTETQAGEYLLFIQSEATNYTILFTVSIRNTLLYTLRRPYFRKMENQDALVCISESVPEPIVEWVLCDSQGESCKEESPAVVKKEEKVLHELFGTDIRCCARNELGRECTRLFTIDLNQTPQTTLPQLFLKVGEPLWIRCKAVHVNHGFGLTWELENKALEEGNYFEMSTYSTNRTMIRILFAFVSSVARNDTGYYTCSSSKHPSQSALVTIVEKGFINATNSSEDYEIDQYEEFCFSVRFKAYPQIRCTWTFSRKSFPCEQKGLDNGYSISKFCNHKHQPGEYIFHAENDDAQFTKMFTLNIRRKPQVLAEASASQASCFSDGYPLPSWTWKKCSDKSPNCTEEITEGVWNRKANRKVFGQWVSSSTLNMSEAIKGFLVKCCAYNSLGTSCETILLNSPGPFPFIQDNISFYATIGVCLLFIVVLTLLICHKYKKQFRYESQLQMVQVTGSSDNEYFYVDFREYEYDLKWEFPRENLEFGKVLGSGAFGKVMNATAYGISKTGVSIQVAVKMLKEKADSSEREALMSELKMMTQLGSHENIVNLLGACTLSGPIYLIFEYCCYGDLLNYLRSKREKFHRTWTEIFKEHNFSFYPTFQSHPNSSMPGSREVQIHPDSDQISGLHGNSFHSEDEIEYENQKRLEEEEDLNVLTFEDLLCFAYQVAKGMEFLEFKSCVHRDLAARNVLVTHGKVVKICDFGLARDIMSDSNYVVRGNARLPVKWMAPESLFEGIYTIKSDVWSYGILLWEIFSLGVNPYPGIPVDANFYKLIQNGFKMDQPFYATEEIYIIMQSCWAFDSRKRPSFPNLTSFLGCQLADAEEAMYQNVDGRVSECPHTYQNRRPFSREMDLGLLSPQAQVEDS
Experimental: (§1) Seeding 3000 cells per well in a 96-well plate. After cell stabilization, treat the cells with compounds diluted in […] at a ⅓ serial dilution and culture for 72 hours. Following treatment with CellTiter-Glo, luminescence is produced only in the presence of ATP, as luciferase degrades luciferin. Luminescence values were measured using Envision (PerkinElmer). Based on the measured luminescence values, the concentration of compounds causing cell death was calculated to determine the GI50 value.
(§2) The activity values were categorized into three levels. • A: IC50<1 μM • B: 1 μM≤IC50<10 μM, • C: IC50≥10 μM

Ba/F3 FLT3 (ITD/D835Y) = target: T2, Ba/F3 FLT3 (ITD/D835Y) (Homo sapiens, UniProt P36888, D835Y, cells depend on it, form not given); settings: read-out: Ba/F3 GI50s (μM) FLT3 (ITD/D835Y)
T2 sequence (P36888 1-993 D835Y): T1 sequence (P36888 1-993) with D835Y
Experimental: as §1, §2

Ba/F3 parental = settings: Mus musculus, BaF3, Ba/F3 parental cells, read-out: Ba/F3 GI50s (μM) parental
Experimental: as §1, §2

Row | Compound | GI50 (Ba/F3 FLT3 (ITD)) [µM] | GI50 (Ba/F3 FLT3 (ITD/D835Y)) [µM] | IC50 (Ba/F3 parental) [µM]
1 | CN1CCCn2cc(cn2)Nc2ncc3ccc(n3n2)-c2ccc(cc2)OCC1 [Example 2] | < 1 | < 1 | 1 to 10
2 | CC(=O)N1CCCn2cc(cn2)Nc2ncc3ccc(n3n2)-c2ccc(cc2)OCC1 [Example 3, 1-((2^1Z,4^4E)-4^1H-11-oxa-3,8-diaza-2(7,2)-pyrrolo[2,1-f1][1,2,4]triazina-4(4,1)-pyrazola-1(1,4)-benzenacycloundecaphane-8-yl)ethan-1-one] | < 1 | < 1 | 1 to 10
3 | COc1cccc(NC(=O)N2CCCn3cc(cn3)Nc3ncc4ccc(n4n3)-c3ccc(cc3)OCC2)c1 [Example 7, (2^1Z,4^4E)-N-(3-methoxyphenyl)-4^1H-11-oxa-3,8-diaza-2(7,2)-pyrrolo[2,1-f][1,2,4]triazina-4(4,1)-pyrazola-1(1,4)-benzenecycloundecaphane-8-carboxamide] | < 1 | < 1 | ≥ 10
4 | CS(=O)(=O)N1CCCn2cc(cn2)Nc2ncc3ccc(n3n2)-c2ccc(cc2)OCC1 [Example 9, (2^1Z,4^4E)-8-(methylsulfonyl)-4^1H-11-oxa-3,8-diaza-2(7,2)-pyrrolo[2,1-f][1,2,4]triazina-4(4,1)-pyrazola-1(1,4)-benzenecycloundecaphane] | < 1 | < 1 | 1 to 10
5 | O=C1CCCCCCn2cc(cn2)-c2ccc3cnc(nn23)Nc2ccc(cc2)OCCCN1 [Example 17, (1^4Z,2^1Z)-1′H-5-oxa-3,9-diaza-2(7,2)-pyrrolo[2,1-f][1,2,4]triazina-1(4,1)-pyrazola-4(1,4)-benzenacyclohexadecaphan-10-one] | 1 to 10 | 1 to 10 | ≥ 10
6 | O=C1CCCCCCOc2ccc(cc2F)-c2ccc3cnc(nn23)Nc2ccc(cc2)OCCCN1 [Example 20, (Z)-13-fluoro-5,17-dioxa-3,9-diaza-2(7,2)-pyrrolo[2,1-f][1,2,4]triazina-1,4(1,4)-dibenzenacycloheptadecaphan-10-one] | 1 to 10 | 1 to 10 | ≥ 10
7 | O=C1CCCCCCOc2ccc(cc2)-c2ccc3cnc(nn23)Nc2ccc(cc2)N2CCN(CCCN1)CC2 [Example 23, (Z)-17-oxa-3,9-diaza-2(7,2)-pyrrolo[2,1-f][1,2,4]triazina-5(1,4)-piperazina-1,4(1,4)-dibenzenacycloheptadecaphan-10-one] | < 1 | < 1 | ≥ 10
8 | O=C1CCCCCCOc2ccc(cc2)-c2ccc3cnc(nn23)Nc2ccc(cc2)N2CCN1CC2 [Example 24, (Z)-13-oxa-3-aza-2(7,2)-pyrrolo[2,1-f][1,2,4]triazina-5(1,4)-piperazina-1,4(1,4)-dibenzenacyclotridecaphan-6-one] | 1 to 10 | 1 to 10 | 1 to 10
9 | O=C1CCCCOc2ccc(cc2)-c2ccc3cnc(nn23)Nc2cnn(c2)C2CCN1CC2 [Example 25, (2^1Z,4^4E)-4^1H-11-oxa-3-aza-2(7,2)-pyrrolo[2,1-f][1,2,4]triazina-5(4,1)-piperidina-4(4,1)-pyrazola-1(1,4)-benzenacycloundecaphan-6-one] | < 1 | < 1 | ≥ 10
10 | O=C1CCCCOc2ccc(cc2)-c2ccc3cnc(nn23)Nc2cnn(c2)C2CCN(CCCN1)CC2 [Example 26, (2^1Z,4^4E)-4^1H-15-oxa-3,9-diaza-2(7,2)-pyrrolo[2,1-f1][1,2,4]triazina-5(4,1)-piperidina-4(4,1)-pyrazola-1(1,4)-benzenacyclopentadecaphan-10-one] | < 1 | < 1 | ≥ 10
11 | O=C1CCCCCCOc2ccc(cc2)-c2ccc3cnc(nn23)Nc2cnn(c2)C2CCN(CCCN1)CC2 [Example 27, (2^1Z,4^4E)-4^1H-17-oxa-3,9-diaza-2(7,2)-pyrrolo[2,1-f1][1,2,4]triazina-5(4,1)-piperidina-4(4,1)-pyrazola-1(1,4)-benzenacycloheptadecaphan-10-one] | < 1 | < 1 | 1 to 10
